Assay results from article PMC4130903 (Bioorganic & medicinal chemistry letters, 2014).
Like-named read-outs stand apart in the source and are kept apart here. Values belong to the compound of their own block, whether it stands above or below them.

Assays:
NTSR1 [1] = target: T1, NTSR1 (Homo sapiens, UniProt P30989); settings: Wyeth compound 1, literature value; cited from earlier work
NTSR1 [2] = target: T1, NTSR1; type: cell-based; settings: for Emax: % of the response obtained with the NT(8–13) peptide, average ± SEM, n = 4; for NTSR1 activity (in words): Ca2+ mobilization assay
NTSR1 [3] = target: T1, NTSR1; settings: NTSR1 antagonists; cited from earlier work
NTSR1 [4] = target: T1, NTSR1; assay: Ca2+ assay in the presence and absence of antagonist 5; type: cell-based; settings: in the presence of antagonist 5 (SR 48692); Figure S1

T1 sequence (P30989 whole entry, species assumed): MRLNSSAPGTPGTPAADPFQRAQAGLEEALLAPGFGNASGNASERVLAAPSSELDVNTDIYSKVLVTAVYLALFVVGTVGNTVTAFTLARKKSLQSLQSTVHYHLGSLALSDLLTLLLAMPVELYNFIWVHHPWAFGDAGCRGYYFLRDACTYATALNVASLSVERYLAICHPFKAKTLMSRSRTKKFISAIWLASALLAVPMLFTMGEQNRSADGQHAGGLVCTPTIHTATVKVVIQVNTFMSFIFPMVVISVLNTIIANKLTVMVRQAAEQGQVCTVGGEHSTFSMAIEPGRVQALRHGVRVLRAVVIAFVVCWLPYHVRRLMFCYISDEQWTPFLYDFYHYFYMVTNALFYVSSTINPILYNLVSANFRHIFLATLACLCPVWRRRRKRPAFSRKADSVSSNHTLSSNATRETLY

EC50 (NTSR1 [2]): > 100 µM
Structure (SMILES): CC(C)C[C@@H](NC(=O)Cn1ccc2cc(NS(=O)(=O)c3cccc4cccnc34)ccc21)C(=O)O [Compound 1, reference compound]
Emax (NTSR1 [1]): 17%

Structure (SMILES): COc1cccc(OC)c1-c1cc(C(=O)NC2(C(=O)O)C3CC4CC(C3)CC2C4)nn1-c1ccnc2cc(Cl)ccc12 (stereo not drawn) [Compound 5]
Binding affinity (NTSR1 [3]): low nanomolar range

Structure (SMILES): COc1cccc(OC)c1-c1cc(C(=O)NC2(C(=O)O)C3CC4CC(C3)CC2C4)nn1-c1ccc(C(=O)N(C)CCCN(C)C)cc1C(C)C (stereo not drawn) [Compound 6]
Binding affinity (NTSR1 [3]): low nanomolar range

NTSR1 stimulatory activity in the presence of antagonist 5 (NTSR1 [4]): abolished
Structure (SMILES): CC(C)C[C@H](NC(=O)Cn1ccc2cc(NS(=O)(=O)c3cccc4cccnc34)ccc21)C(=O)O [Compound 7]

NTSR1 stimulatory activity in the presence of antagonist 5 (NTSR1 [4]): abolished
Emax (NTSR1 [2]): 100%
Potency improvement compared to parent compound 1 (NTSR1 [2]; EC50 versus compound 1 (EC50 = 178 μM)): ~ 90 fold
Structure (SMILES): CC(C)C[C@H](NC(=O)Cn1ccc2cc(-c3cnc4ccccc4c3)ccc21)C(=O)O [Compound 8]

NTSR1 stimulatory activity in the presence of antagonist 5 (NTSR1 [4]): abolished
Structure (SMILES): CC(C)C[C@H](NC(=O)Cn1ccc2ccccc21)C(=O)O [Compound 12]

NTSR1 stimulatory activity in the presence of antagonist 5 (NTSR1 [4]): abolished
EC50 (NTSR1 [2]): 3 µM
Emax (NTSR1 [2]): 100%
Structure (SMILES): CC(C)C[C@H](NC(=O)Cn1ccc2cc(-c3cccc4ccccc34)ccc21)C(=O)O [Compound 17]

NTSR1 stimulatory activity in the presence of antagonist 5 (NTSR1 [4]): abolished
Structure (SMILES): CC(C)C[C@H](NC(=O)Cn1ccc2cc(-c3cncc4ccccc34)ccc21)C(=O)O [Compound 21]

NTSR1 activity (in words) (NTSR1 [2]): loss of activity
Structure (SMILES): COC(=O)[C@H](CC(C)C)NC(=O)Cn1ccc2cc(-c3cnc4ccccc4c3)ccc21 [Compound 25]

NTSR1 activity (in words) (NTSR1 [2]): loss of activity
Structure (SMILES): CC(C)C[C@@H](CO)NC(=O)Cn1ccc2cc(-c3cnc4ccccc4c3)ccc21 [Compound 26]

NTSR1 stimulatory activity in the presence of antagonist 5 (NTSR1 [4]): abolished
Structure (SMILES): CC(C)C[C@H](NC(=O)Cn1ccc2cc(-c3cnc4ccccc4c3)ccc21)c1nn[nH]n1 [Compound 27]

EC50 (NTSR1 [2]): 4 µM
Structure (SMILES): O=C(Cn1ccc2cc(-c3cnc4ccccc4c3)ccc21)N[C@@H](Cc1ccccc1)C(=O)O [Compound 31]

NTSR1 activity (in words) (NTSR1 [2]): no activity
Structure (SMILES): CC(C)C[C@@H](NC(=O)Cn1ccc2cc(-c3cnc4ccccc4c3)ccc21)C(=O)O [Compound 32]

NTSR1 activity (in words) (NTSR1 [2]): abolished activity
Structure (SMILES): COC(=O)[C@H](CC(C)C)NC(=O)Cn1ccc2cc(-c3cccc4ccccc34)ccc21 [Compound 34]

NTSR1 stimulatory activity in the presence of antagonist 5 (NTSR1 [4]): abolished
Structure (SMILES): CC(C)C[C@H](NC(=O)Cn1ccc2ccc(-c3cnc4ccccc4c3)cc21)C(=O)O [Compound 39]

NTSR1 stimulatory activity in the presence of antagonist 5 (NTSR1 [4]): abolished
Structure (SMILES): CC(C)C[C@H](NC(=O)Cn1ccc2ccc(-c3cccc4ccccc34)cc21)C(=O)O [Compound 40]
